From patent publication US7572606B1 (Nereus Pharmaceuticals, Inc., priority 2005, dated 2009)
Several values for one entry are separate records, joined by “and”; a condition that tells them apart may be missing. Equal entries are not always repeated. Where two headings read alike, the source gives them in different places.

How the values were obtained:
[1] = molecular target: caspase-like (PGPH) activity of rabbit muscle 20S proteasome (Oryctolagus cuniculus, UniProt A0A5F9DQW2); test: In vitro inhibition of 20S proteasome, Z-LLE-AMC; conditions: purified rabbit 20S proteasome, Z-LLE-AMC
[2] = molecular target: T1, trypsin-like activity of rabbit muscle 20S proteasome (Oryctolagus cuniculus, UniProt G1SWK8); test: In vitro inhibition of 20S proteasome, Boc-LRR-AMC; assay type: biochemical; conditions: under the conditions tested
T1 construct: EC50 Trypsin-like; other: purified rabbit 20S proteasome, Boc-LRR-AMC; other: under the conditions tested
T1 sequence (G1SWK8 1-271): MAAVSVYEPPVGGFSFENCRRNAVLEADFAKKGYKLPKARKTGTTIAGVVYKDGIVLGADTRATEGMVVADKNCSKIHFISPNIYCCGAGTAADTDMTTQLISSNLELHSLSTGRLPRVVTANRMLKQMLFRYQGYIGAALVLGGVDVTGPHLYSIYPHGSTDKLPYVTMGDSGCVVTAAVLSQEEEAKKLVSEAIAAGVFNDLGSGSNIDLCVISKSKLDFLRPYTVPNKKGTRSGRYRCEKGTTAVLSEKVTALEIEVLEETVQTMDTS

[3] = test system: NF-κB-mediated luciferase activity in HEK293 NF-κB/Luc cells; test: NF-κB-mediated luciferase reporter gene assay; assay type: cell-based, human; conditions: for luciferase activity upon TNF-α stimulation: pretreatment of NF-κB/Luc 293 cells; for EC50: Homo sapiens, HEK293, 1 h pretreatment, 6 h TNF-α stimulation, read-out: EC50
Procedure: The HEK293 NF-κB/luciferase reporter cell line is a derivative of the human embryonic kidney cell line (ATCC; CRL-1573) and carries a luciferase reporter gene under the regulation of 5×NF-κB binding sites. […] When performing the luciferase assay, the DMEM basal medium was replaced with phenol-red free DMEM basal medium and the G418 was omitted.
For NF-κB-mediated luciferase assays, HEK293 NF-κB/luciferase cells were seeded at 1.5×10^4 cells/well in 90 μl phenol-red free DMEM complete medium into Corning 3917 white opaque-bottom tissue culture plates. For Formulae II-2, II-4, II-5A and II-18, a 400 μM starting dilution was made in 100% DMSO and this dilution was used to generate an 8-point half log dilution series. […] For formula II-20, a 2.5 mM or 8 mM starting dilution was made in 100% DMSO and the final test concentrations ranged from 6.3 μM to 2.0 nM or 20 μM to 6.3 nM respectively. The plates were returned to the incubator for 1 hour. After 1 hr pretreatment, 10 μl of a 50 ng/ml TNF-α solution, prepared in the phenol-red free DMEM medium was added, and the plates were incubated for an additional 6 hours.
At the end of the TNF-α stimulation, 100 μl of Steady Lite HTS luciferase reagent (Packard Bioscience) was added to each well and the plates were left undisturbed for 10 min at room temperature before measuring the luciferase activity. The relative luciferase units (RLU) were measured by using a Fusion microplate fluorometer (Packard Bioscience).
NF-κB inducible luciferase activity was measured at 6 hours.

[4] = molecular target: T2, chymotrypsin-like activity of rabbit muscle 20S proteasome (Oryctolagus cuniculus, UniProt G1T4Q9); test: In vitro inhibition of 20S proteasome, suc-LLVY-AMC
T2 sequence (G1T4Q9 1-263): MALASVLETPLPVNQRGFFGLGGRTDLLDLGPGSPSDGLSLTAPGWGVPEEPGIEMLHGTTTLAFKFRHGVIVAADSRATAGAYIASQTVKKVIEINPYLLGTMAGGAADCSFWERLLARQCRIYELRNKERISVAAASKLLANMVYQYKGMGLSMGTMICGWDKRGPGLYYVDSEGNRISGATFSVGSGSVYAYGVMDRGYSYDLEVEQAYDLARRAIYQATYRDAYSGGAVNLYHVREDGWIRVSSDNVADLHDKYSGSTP

[5] = test system: U266; test: Cell growth inhibition, resazurin, 48 h; assay type: cell-based, human; conditions: U266, 48 h drug exposure
[6] = test system: RPMI 8226; test: Cell growth inhibition, resazurin, 48 h; conditions: Homo sapiens, RPMI-8226, 48 h, RPMI 8226, 48 h drug exposure
Procedure: RPMI 8226 (CCL-155), HT-29 (HTB-38), and B16-F10 (CRL-6475) cells were purchased from ATCC. RPMI 8226 cells were maintained in RPMI 1640 media supplemented with 10% (v/v) FBS, 2 mM L-glutamine, 1 mM sodium pyruvate and Penicillin/Streptomycin at 100 IU/ml and 100 μg/ml, respectively. HT-29 cells were maintained in McCoys 5A supplemented with 10% (v/v) FBS, 2 mM L-glutamine, 1 mM sodium pyruvate, 1% (v/v) non-essential amino acids, 10 mM HEPES and Penicillin/Streptomycin at 100 IU/ml and 100 μg/ml, respectively. B16-F10 cells were maintained in DMEM supplemented with 10% (v/v) FBS, 2 mM L-glutamine, 10 mM HEPES and Penicillin/Streptomycin at 100 IU/ml and 100 μg/ml, respectively.
RPMI 8226 cells were seeded at 2×10^4 cells/well in 90 μl RPMI media containing 10% (v/v) FBS or 1% (v/v) FBS into 96 well black-walled, clear-bottom tissue culture plates. […] Formulae II-16, II-17 and Formula II-18 were serially diluted in media containing 1% or 10% FBS and added in triplicate to the test wells. […] The final concentration of Formula II-18 ranged from 2 μM to 630 pM.

[7] = test system: HL-60/MX2; test: Cell growth inhibition, resazurin, 48 h; conditions: HL-60/MX2, 48 h drug exposure
Procedure: The DNA binding agent Mitoxantrone was included as a control, as HL-60/MX2 cells are reported to be resistant to this chemotherapeutic agent (Harker W. G. et al. 1989).
(§1) Concentrations ranging from 6.32 μM to 2 nM were tested for II-2 and II-4.

[8] = test system: 20S proteasome chymotrypsin-like activity in RPMI 8226 cells; test: Chymotrypsin-like activity of 20S proteasomes in treated cells; assay type: cell-based, human; conditions: 1 hr, mean ± SD, n = 3
Procedure: RPMI 8226 (ATCC, CCL-155), the human multiple myeloma cell line, was cultured in RPMI 1640 medium supplemented with 2 mM L-glutamine, 100 units/ml penicillin, 100 μg/ml streptomycin, 1 mM sodium pyruvate and 10% heat inactivated fetal bovine serum at 37° C., 5% CO2 and 95% humidified air. […] DMSO was used as the vehicle control at a final concentration of 0.1%. Following 1 hr incubation of RMPI 8226 cells with the compounds, the cells were pelleted by centrifugation at 2,000 rpm for 10 sec at room temperature and washed 3× with ice-cold 1×Dulbecco's Phosphate-Buffered Saline (DPBS, Mediatech, Herndon, Va.). DPBS washed cells were lysed on ice for 15 min in lysis buffer (20 mM HEPES, 0.5 mM EDTA, 0.05% Triton X-100, pH 7.3) supplemented with protease inhibitor cocktail (Roche Diagnostics, Indianapolis, Ind.). Cell debris was pelleted by centrifugation at 14,000 rpm for 10 min, 4° C. and supernatants (=cell lysates) were transferred to a new tube. Protein concentration was determined by the BCA protein assay kit (Pierce Biotechnology, Rockford, Ill.). […] The total amount of protein used for each assay was 20 μg. The final concentration of Suc-LLVY-AMC and DMSO was 20 μM and 0.2%, respectively.

[9] = test system: MES-SA/Dx5; test: Cell growth inhibition, resazurin, 48 h; conditions: human, 48 h
Procedure: as §1

[10] = read-out: EC50 Caspase-like (PGPH)

Sequence of caspase-like (PGPH) activity of rabbit muscle 20S proteasome (A0A5F9DQW2 1-212): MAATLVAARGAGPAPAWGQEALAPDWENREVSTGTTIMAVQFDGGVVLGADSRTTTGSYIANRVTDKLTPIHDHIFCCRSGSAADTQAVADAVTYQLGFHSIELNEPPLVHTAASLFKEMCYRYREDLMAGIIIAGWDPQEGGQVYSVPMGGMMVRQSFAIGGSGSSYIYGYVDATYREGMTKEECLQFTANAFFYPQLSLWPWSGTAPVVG

For `CC12OC(=O)C1(C(=O)C1C=CCCC1)NC(=O)C2CCCl` (stereo not drawn) [Formula II-13C], the EC50 ([1]; read-out: EC50 Caspase-like) was > 20 µM and the “inhibition of the trypsin-like activity of the 20S proteasome” value (“inhibition … of the 20S proteasome” for short) [2] was “able to inhibit the trypsin-like activity”.
In the case of `C[C@@]12OC(=O)[C@]1([C@@H](O)[C@@H]1C=CCCC1)NC(=O)[C@@H]2CCO` [Formula II-21], the EC50 [1, 10] is reported as 2.58 µM and 2.33 µM, the EC50 ([1]; read-out: EC50 Caspase-like) is reported as 2.3 µM and the “luciferase activity upon TNF-α stimulation” value [3] is reported as “dose-dependent decrease of luciferase activity”. For the same molecule, the “inhibition … of the 20S proteasome” value [2] was “able to inhibit the trypsin-like activity”.
With `CCC(=O)OCC[C@H]1C(=O)N[C@@]2([C@@H](O)[C@@H]3C=CCCC3)C(=O)O[C@@]12C` [Formula II-22] the EC50 ([1]; read-out: EC50 Caspase-like) was 1.4 µM, the “luciferase activity upon TNF-α stimulation” value [3] was “dose-dependent decrease of luciferase activity” and the “inhibition … of the 20S proteasome” value [2] was “able to inhibit the trypsin-like activity”.
With `CC[C@@]12OC(=O)[C@]1([C@@H](O)[C@@H]1C=CCCC1)NC(=O)[C@@H]2CCCl` [Formula II-24C] the EC50 ([1]; read-out: EC50 Caspase-like) was > 20 µM, the “luciferase activity upon TNF-α stimulation” value [3] was “dose-dependent decrease of luciferase activity” and the EC50 ([4]; read-out: EC50 Chymotrypsin-like, purified rabbit 20S proteasome, suc-LLVY-AMC) was 2.2 µM. For the same molecule, the “inhibition … of the 20S proteasome” value [2] was “able to inhibit the trypsin-like activity”.
In the case of `C[C@@]12OC(=O)[C@]1([C@H](O)[C@@H]1C=CCCC1)NC(=O)[C@@H]2CCCl` [Formula II-25], the EC50 ([5]; Homo sapiens, U-266, 48 h) is reported as > 20 µM, the EC50 [6] is reported as > 20 µM and the EC50 [3] is reported as > 20 µM.
`C[C@@]12OC(=O)[C@]1([C@@H](O)[C@@H]1C=CCCC1)NC(=O)[C@H]2CCCl` [Formula II-26] was tested, and the “luciferase activity upon TNF-α stimulation” value [3] was “dose-dependent decrease of luciferase activity” and the “inhibition … of the 20S proteasome” value [2] was “able to inhibit the trypsin-like activity”.
In the case of `C[C@@H]1C(=O)N[C@@]2([C@@H](O)[C@@H]3C=CCCC3)C(=O)O[C@@]12C` [Formula II-28], the EC50 ([1]; read-out: EC50 Caspase-like) is reported as > 20 µM.
`C[C@@]12OC(=O)[C@]1([C@@H](O)[C@@H]1C=CCCC1)NC(=O)[C@@H]2CCN=[N+]=[N-]` [Formula II-29] was tested, and the EC50 [1, 10] was 0.535 µM and 0.52 µM, the “luciferase activity upon TNF-α stimulation” value [3] was “dose-dependent decrease of luciferase activity” and the “inhibition … of the 20S proteasome” value [2] was “able to inhibit the trypsin-like activity”.
For `CCC[C@H]1C(=O)N[C@@]2([C@@H](O)[C@@H]3C=CCCC3)C(=O)O[C@@]12C` [Formula II-30], the EC50 [1, 10] was 0.956 µM, the EC50 ([1]; read-out: EC50 Caspase-like) was 1.3 µM and the “luciferase activity upon TNF-α stimulation” value [3] was “dose-dependent decrease of luciferase activity”. For the same molecule, the “inhibition … of the 20S proteasome” value [2] was “able to inhibit the trypsin-like activity”.
In the case of `C[C@@]12OC(=O)[C@]1(C(=O)C1=CC(O)CCC1)NC(=O)[C@]2(C)CCCl` (stereo partly drawn) [Formula II-31], the EC50 [4] is reported as > 20 µM.
For `COC(=O)CCSC(=O)[C@]1([C@@H](O)[C@@H]2C=CCCC2)NC(=O)[C@H](CCCl)[C@]1(C)O` [Formula II-44], the EC50 ([1]; read-out: EC50 Caspase-like) was 1.4 µM, the “luciferase activity upon TNF-α stimulation” value [3] was “dose-dependent decrease of luciferase activity” and the “inhibition … of the 20S proteasome” value [2] was “able to inhibit the trypsin-like activity”.
For `C[C@@]12OC(=O)[C@]1([C@@H](O)[C@H]1CCC[C@H](Cl)[C@H]1O)NC(=O)[C@@H]2CCCl` [Formula IV-3C], the EC50 ([5]; Homo sapiens, U-266, 48 h, read-out: EC50) was 7.76 µM, the EC50 ([5]; read-out: EC50) was 8.29 µM and the EC50 [6] was > 20 µM. The EC50 ([1]; read-out: EC50 Caspase-like) was > 20 µM and the EC50 [3] was > 20 µM.
With `COC(=O)CCSC(=O)C1(C(O)C2C=CCCC2)NC(=O)C2CCOC21C` (stereo not drawn) [Formula VI-1A] the EC50 ([1]; read-out: EC50 Caspase-like) was 7.9 µM and 8.7 µM and the “inhibition … of the 20S proteasome” value [2] was “able to inhibit the trypsin-like activity”.
`O=C1c2c(O)ccc(O)c2C(=O)c2c(NCCNCCO)ccc(NCCNCCO)c21` [Mitoxantrone, reference compound] was tested, and the EC50 [7] was 0.827 µM and 1.34 µM and 1.17 µM and the EC50 ([7]; Homo sapiens, HL60/MX2, 48 h) was 1.41 µM.
`CC(C)[C@H](O)[C@@]12NC(=O)[C@H](C)[C@@H]1OC2=O` [Omuralide, reference compound] was tested, and the “% inhibition of the chymotrypsin-like activity of 20S proteasomes in RPMI 8226 cell lysates” value (“% inhibition” for short) ([8]; 1 nM) was 5 ± 9%, the “% inhibition” value ([8]; 5 nM) was 8 ± 9% and the “% inhibition” value ([8]; 10 nM) was 4 ± 9%. For the same molecule, the “% inhibition” value ([8]; 50 nM) was 17 ± 11%, the “% inhibition” value ([8]; 100 nM) was 32±8% and the “% inhibition” value ([8]; 500 nM) was 68 ± 11%. For the same molecule, the “% inhibition” value ([8]; 1,000 nM) was 80 ± 8% and the “% inhibition” value ([8]; 10,000 nM) was 93 ± 1%.
With `CC(=O)O[C@H]1C(=O)[C@@]2(C)[C@H]([C@H](OC(=O)c3ccccc3)[C@]3(O)C[C@H](OC(=O)[C@H](O)[C@@H](NC(=O)c4ccccc4)c4ccccc4)C(C)=C1C3(C)C)[C@]1(OC(C)=O)CO[C@@H]1C[C@@H]2O` [Paclitaxel, reference compound] the “% cytotoxicity” value [9] was 78 ± 1%.
